Reference: patent US20210251983A1, “METHODS OF TREATMENT WITH BUPRENORPHINE” (BioDelivery Sciences International, Inc., priority 2020, published 2021)
Entries after “also recorded” stand apart in the source; their conditions may differ.

Legend:
[1] = system: pupil diameter; assay: Pupillometry during VRH testing; format: in vivo, human; settings: time after dosing
[2] = Treatment-emergent adverse events
[3] = Pharmacokinetic assessment - abuse quotient (plasma Cmax, Tmax, AUC0-last, AQ); settings: for AUC(0-t) / Cmax / Tmax: both, human, plasma, oral
[4] = system: respiratory drive; assay: Ventilatory response to hypercapnia (VRH) test of respiratory drive, phase I placebo-controlled crossover trial

Structure (SMILES): COc1ccc2c3c1O[C@H]1C(=O)CC[C@@]4(O)[C@@H](C2)N(C)CC[C@]314.Cl [IR Oxycodone, oxycodone hydrochloride]
- initial onset of statistically significant miosis (relative to placebo) ([1]; oxycodone 30 mg): 0.5 h
- initial onset of statistically significant miosis (relative to placebo) ([1]; oxycodone 60 mg): 0.5 h
- treatment-emergent adverse events ([2]; all doses): produced some adverse events
- treatment-emergent adverse events ([2]; oxycodone 60 mg): highest percentage of adverse events in all categories
- Cmax dependence on dose ([3]; BBF 300-900 μg, IR oxycodone 30, 60 mg): increased proportionally with dose
- AUC(0-t) ([3]; 30 mg): 0.216 µg·h/mL
- Cmax ([3]; 30 mg): 0.0658 µg/mL
- Tmax ([3]; 30 mg): 1.2 h
- AUC(0-t) ([3]; 60 mg): 0.435 µg·h/mL
- Cmax ([3]; 60 mg): 0.132 µg/mL
- Tmax ([3]; 60 mg): 1.2 h
- effect on respiratory drive (Emax) relative to placebo ([4]; across all doses tested (BBF 300-900 μg; oxycodone 30, 60 mg), hydrochloride): dose-dependent decrease in respiratory drive; also recorded: decreased respiratory drive in a dose-dependent fashion
- least square mean difference in Emax (maximum minute ventilation) versus placebo ([4]; oral oxycodone 30 mg, P=0.668): −828.5
- least square mean difference in Emax (maximum minute ventilation) versus placebo ([4]; oral oxycodone 60 mg, P=0.008): −5188.6
- minute ventilation relative to placebo ([4]; oxycodone 30 mg): significant (P<0.05) decrease at one hour post-dose
- Peak Expiratory Flow Rate (PEFR) relative to placebo ([4]; oxycodone 30 mg, 1 hour post-dose): significant (P<0.05) decrease in PEFR at 1 hour post-dose
- minute ventilation relative to placebo ([4]; oxycodone 60 mg): significant (P<0.05) decreases at 1 hour, 2 hour, and 4 hours post-dose
- Peak Expiratory Flow Rate (PEFR) relative to placebo ([4]; oxycodone 60 mg, 30 minutes post-dose): significant (P<0.05) decrease at 30 minutes
- Peak Expiratory Flow Rate (PEFR) relative to placebo ([4]; oxycodone 60 mg, 1 hour post-dose): significant (P<0.05) decrease in PEFR at 1 hour post-dose
- oxygen saturation level, one subject (adverse event) ([4]; oxycodone 60 mg, approximately 1.5 hours after dosing): 86%
